This note sets out measurements from article PMC12354831 (Cell Death Discovery, 2025).

Structures are written as SMILES. Where “and” joins values, the source holds several entries; their conditions need not be identical. Equal values may be shown once. Read-outs that look alike come from different tables or passages of the source.

Data set [1] concerns the target T1, GLUT3 (Homo sapiens, UniProt P11169).
T1 construct: expressed in transfected cells
T1 sequence (P11169 1-496): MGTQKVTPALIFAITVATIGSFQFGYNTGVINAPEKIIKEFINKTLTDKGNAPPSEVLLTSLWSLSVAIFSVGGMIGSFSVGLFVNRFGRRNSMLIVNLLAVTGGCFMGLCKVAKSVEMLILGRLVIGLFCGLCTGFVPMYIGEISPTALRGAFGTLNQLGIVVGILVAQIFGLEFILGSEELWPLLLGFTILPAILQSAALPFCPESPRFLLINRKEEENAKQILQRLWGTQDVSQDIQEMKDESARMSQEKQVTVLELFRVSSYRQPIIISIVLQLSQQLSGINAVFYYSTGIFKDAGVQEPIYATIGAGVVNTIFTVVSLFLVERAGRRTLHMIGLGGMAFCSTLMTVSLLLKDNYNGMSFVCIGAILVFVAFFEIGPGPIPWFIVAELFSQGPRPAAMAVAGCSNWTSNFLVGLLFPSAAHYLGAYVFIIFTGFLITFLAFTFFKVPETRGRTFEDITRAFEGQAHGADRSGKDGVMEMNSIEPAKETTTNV
Nature of the data set: 2-NBDG glucose uptake competition assay in GLUT3-OE vs vector control U251-MG cells. Format: cell-based. The note with it: for reduction in 2-NBDG uptake: GLUT3 OE U251-MG cells, 100 μM 2-NBDG. Here is the method:
GBM cells were seeded into 96-well plates at a density of 4 × 10^4 cells per well and allowed to adhere for 24 h. After 6–12 h, the culture medium (containing 10% fetal bovine serum, FBS) was removed, and the cells were incubated in 100 µL of glucose-free DMEM medium for 1 h at 37 °C in a humidified atmosphere containing 5% CO2. The glucose-free medium was then replaced with 100 µL of DMEM containing 100 µM 2-NBDG, and the cells were incubated for an additional 30 min at 37 °C. Following incubation, the cells were washed three times with cold PBS to remove unincorporated 2-NBDG. The fluorescence intensity was immediately measured using a Synergy™ H1 automatic microplate reader with excitation and emission wavelengths set at 485 nm and 528 nm, respectively.
After 30 min of incubation at 37 °C, the cells were washed three times with cold PBS, and the fluorescence intensity was measured as described above.

The test system of data set [2] is U251-MG cells. Kind of data set: CCK-8 IC50 in U251-MG cells expressing GLUT3 mutants vs WT. It is filed as cell-based, human. The note with it: GLUT3 Q159A vs GLUT3 WT. How it is done:
(§1) The GBM cell line was seeded into a 96-well plate at a density of 5 × 10^3 cells per well and incubated at 37 °C in a humidified atmosphere containing 5% CO2 overnight. […] Following 24 h of drug treatment, 10 µL of CCK-8 reagent was added to each well, and the cells were incubated for an additional 1 h at 37 °C. The absorbance was then measured at 450 nm using a microplate reader.
(§2) In this study, the experimental groups were designated as Group A (cells treated with temozolomide (TMZ) or capecitabine (CAPE)), the control group as Group B (cells treated with DMSO), and the blank control group as Group C ([…]). The cell viability rate was calculated using the formula: (A-C)/(B-C) × 100%, where A, B, and C represent the absorbance values of Group A, Group B, and Group C, respectively.

The test system of data set [3] is U251-MG cell-derived xenograft. Kind of data set: Tumor growth in U251-MG cell-derived xenograft model. It is filed as in vivo, nude mice (BALB/c-nu). The note with it: TMZ 40 mg/kg or CAPE 20 mg/kg every 3 days; for effect of fasting on tumor growth under drug treatment: GLUT3-overexpressing tumors, 24 h fast before each dose vs non-fasting; for effect on tumor growth vs saline groups: nude mice. Here is the method: (§3) All animal studies were approved and supervised by the Ethics Committee for Animal Use and Care at Peking University. Nude mice (BALB/c-nu) were purchased and maintained as previously described. For the establishment of xenograft tumor models, 1 × 10^6 U251-MG cells (either negative vector control or overexpressing GLUT3) were injected into the bilateral axillary fossae of 4-week-old nude mice. After 7 days, when palpable tumors had formed, the mice were randomly divided into six experimental groups (n = 7 per group), and treatment was initiated immediately.
Tumor diameters were measured every 4 days using calipers. At the end of the study, all mice were sacrificed, and the tumors were carefully excised and weighed. Tumor volume was calculated using the formula V = (length*width^2)/2. Data were analyzed using statistical software to evaluate the differences among groups.

For data set [4], the system named is U251-MG cell-derived xenograft. Nature of the data set: TMZ and CAPE levels in nude mouse xenograft tumors by LC-MS/MS. It is filed as in vivo, nude mice (BALB/c-nu). Conditions: nude mice, TMZ 40 mg/kg or CAPE 20 mg/kg every 3 days; for drug level in GLUT3-overexpressing tumors relative to controls: fasting groups (24 h fast before each dose); for drug concentration in GLUT3 overexpressing tumors relative to controls: regular diet. Here is the method:
TMZ and CAPE levels in tumors from nude mice were measured using LC-MS/MS. Tumor tissues were excised from the mice and homogenized. The homogenized samples were then centrifuged at maximum speed (~14,000 × g) at 4 °C for 10 min. The supernatant was collected and transferred to a new centrifuge tube.
For LC-MS/MS analysis, the supernatants were diluted to an appropriate concentration. A total of 100 µL of each sample was mixed with 100 µL of acetonitrile (or standard reagent) and 300 µL of internal standard solution (^2H3-TMZ 100 ng/mL and ^2H11-CAPE 20 ng/mL dissolved in acetonitrile). […] To ensure the stability and repeatability of the instrument analysis, QC samples were prepared and analyzed alongside the experimental samples. QC samples were inserted regularly and analyzed every 6–12 samples. Each experiment was repeated 6 times.
LC-MS/MS analyses were performed using an HPLC system (Shimadzu, LC-20A) coupled to a SCIEX Triple Quad™ 7500 mass spectrometer. The samples were separated on a Syncronis HILIC column (2.1 × 100 mm, 1.7 µm; Thermo Scientific). The mobile phases consisted of: Mobile phase A (0.1% formic acid and 2.5 mM ammonium acetate in water) and Mobile phase B (0.1% formic acid and 2.5 mM ammonium acetate in acetonitrile). Gradient elution was employed, with the flow rates and gradient conditions detailed in Table S4.
The mass spectrometry conditions were as follows: Ion source: electrospray ionization (ESI); Detection mode: positive ion mode; Scanning method: multiple reaction monitoring (MRM); Spray voltage (IS): 5500 V; Ion source temperature (TEM): 555 °C; Gas curtain pressure (CUR): 25 psi; Collision activation dissociation (CAD): MEDIUM; Nebulizer gas pressure (GS1): 55 psi; Auxiliary gas pressure (GS2): 55 psi.
as §3

In data set [5] the test system is U251-MG cells. Nature of the data set: CCK-8 IC50 determination in U251-MG cells with or without GLUT3 OE. The note with it: GLUT3 OE vs control, CCK-8, 24 h drug treatment. It is filed as cell-based, human. Here is the method: as §1, §2
Data set [6] concerns the target T1, GLUT3. Kind of data set: Microscale thermophoresis (MST) binding assay, GLUT3-GFP in cell lysates. Here is the method: Data from three independent measurements were analyzed using MO. Affinity Analysis software (version 2.1.3, NanoTemper Technologies).
In general terms: In MST a laser heats a spot of the sample, and binding alters the fluorescence response.

In a further data set the test system is U87-MG cells. Nature of the data set: CCK-8 IC50 determination in U87-MG cells with or without GLUT3 KD. It is filed as cell-based, human. Conditions: GLUT3 KD vs control, CCK-8, 24 h drug treatment. How it is done:
as §1, §2

Where [7] appears, read: across the tested GBM cell lines (U343-MG, U251-MG), read-out: Kd values.

In the case of `Cn1nnc2c(C(N)=O)ncn2c1=O` [TMZ], the “reduction in 2-NBDG uptake” value at GLUT3 [1] (1 μM drug) came to 36.8%. The “reduction in 2-NBDG uptake” value at GLUT3 [1] (10 μM drug) is given as 47.2%. Moreover, at GLUT3 [1] (100 μM drug), the “reduction in 2-NBDG uptake” value was 70.1%. Also, the “effect on glucose (2-NBDG) uptake in control cells” value on GLUT3 [1] (vector control U251-MG cells, until concentration reached 100 μM) is “minimally affected”. In the data set with U251-MG cells [2], the “fold increase in IC50” value was 1.3 fold. Also, in data set [3], the “effect of fasting on tumor growth under drug treatment” value is on record as “significantly inhibited tumor growth”; the “effect on tumor growth vs saline groups” value is “reducing tumor weights and volumes”. Besides, in data set [4], the “drug level in GLUT3-overexpressing tumors relative to controls” value worked out at 1.34 fold and the “drug concentration in GLUT3 overexpressing tumors relative to controls” value is recorded as ~ 1.95 fold. In addition, the “reduction of IC50 in GLUT3 overexpressing cells compared to control cells” value with U251-MG cells [5] was 97.7%. Also, the Kd at GLUT3 [6] (setting [7]) is 300 to 700 nM. The “fold increase of IC50 on GLUT3 knockdown” value with U87-MG cells stood at 10.6 fold.

In the case of `CCCCCOC(=O)Nc1nc(=O)n([C@@H]2O[C@H](C)[C@@H](O)[C@H]2O)cc1F` [CAPE, capecitabine], the “reduction in 2-NBDG uptake” value on GLUT3 [1] (1 μM drug) worked out at 39.4%; at GLUT3 [1] (10 μM drug), 51.5%; at GLUT3 [1] (100 μM drug), 69.3%. In addition, the “fold increase in IC50” value in the data set on U251-MG cells [2] amounted to 3.6 fold. For the same compound, in data set [3], the “effect of fasting on tumor growth under drug treatment” value is “significantly inhibited tumor growth”. For the same compound, the “effect on tumor growth vs saline groups” value in data set [3] is “reducing tumor weights and volumes”. In data set [4], the “drug level in GLUT3-overexpressing tumors relative to controls” value amounted to 3.54 fold. In addition, the “drug concentration in GLUT3 overexpressing tumors relative to controls” value in data set [4] turned out to be 1.52 fold. Moreover, the “reduction of IC50 in GLUT3 overexpressing cells compared to control cells” value in the data set on U251-MG cells [5] is recorded as 94.4%. The Kd was 1800 ± 1100 nM on GLUT3 [6] (U251-MG lysate, GLUT3-GFP, pH 6.8, read-out: Kd); 1000 to 3000 nM and 900 to 3500 nM at GLUT3 [6] (setting [7]). In addition, in the data set on U87-MG cells, the “fold increase of IC50 on GLUT3 knockdown” value is listed as 56.5 fold.

Usually Kd stands for the free concentration of one partner at which half of the binding sites on the other are occupied at equilibrium, for simple one-to-one binding.
